Values quoted from earlier work as cited in patent US20080194655A1, “ZERO ORDER CONTROLLED RELEASE COMPOSITIONS OF TIZANIDINE” (priority 2007, published 2008).

Test system: cognitive function (attention)
Conditions: doses of 0.5-0.7 g/kg alcohol

peak impairment (decrement) in Power of Attention compared to baseline: about 150 msec
Structure (SMILES): CCO [alcohol]
